# Experimental data published in PubChem BioAssay AID328 (DTP/NCI, 2004).
# Several values for one entry are separate records, joined by “and”; a condition that tells them apart may be missing. Equal entries are not always repeated. Inconclusive results and toxic doses are left out.
# Tested on: BDF1 mice, P388 leukemia ip, median survival T/C
# Test: NCI In Vivo Anticancer Drug Screen. Data for tumor model P388 Leukemia (intraperitoneal) in B6D2F1 (BDF1) mice
# Conditions: endpoint: median survival time, higher = longer survival
# How it was run: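 Steps: implant the tumour, treat one group with compound and another with vehicle, record survival, then divide treated by control.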
# [1] = dose: 50.0 mg/kg/injection, schedule: Q01DX005 (ip), vehicle: saline with Tween-80
# [2] = dose: 100.0 mg/kg/injection, schedule: Q01DX005 (ip), vehicle: saline with Tween-80
# [3] = dose: 200.0 mg/kg/injection, schedule: Q01DX005 (ip), vehicle: saline with Tween-80
# [4] = dose: 50.0 mg/kg/injection, schedule: Q01DX009 (ip), vehicle: saline with Tween-80
# [5] = dose: 100.0 mg/kg/injection, schedule: Q01DX009 (ip), vehicle: saline with Tween-80
# [6] = dose: 200.0 mg/kg/injection, schedule: Q01DX009 (ip), vehicle: saline with Tween-80
# [7] = dose: 25.0 mg/kg/injection, schedule: Q01DX009 (ip), vehicle: saline
# [8] = dose: 25.0 mg/kg/injection, schedule: Q04DX003 (ip), vehicle: saline
# [9] = dose: 50.0 mg/kg/injection, schedule: Q04DX003 (ip), vehicle: saline
# [10] = dose: 100.0 mg/kg/injection, schedule: Q04DX003 (ip), vehicle: saline
# [11] = dose: 200.0 mg/kg/injection, schedule: Q01DX009 (ip), vehicle: saline
# [12] = dose: 200.0 mg/kg/injection, schedule: Q04DX003 (ip), vehicle: saline
# [13] = dose: 6.25 mg/kg/injection, schedule: Q01DX009 (ip), vehicle: saline with Tween-80
# [14] = dose: 12.5 mg/kg/injection, schedule: Q01DX009 (ip), vehicle: saline with Tween-80
# [15] = dose: 25.0 mg/kg/injection, schedule: Q01DX009 (ip), vehicle: saline with Tween-80
# [16] = dose: 400.0 mg/kg/injection, schedule: Q04DX003 (ip), vehicle: saline
# [17] = dose: 100.0 mg/kg/injection, schedule: Q04DX003 (ip), vehicle: saline with Tween-80
# [18] = dose: 200.0 mg/kg/injection, schedule: Q04DX003 (ip), vehicle: saline with Tween-80
# [19] = dose: 400.0 mg/kg/injection, schedule: Q04DX003 (ip), vehicle: saline with Tween-80
# [20] = dose: 50.0 mg/kg/injection, schedule: Q04DX003 (ip), vehicle: saline with Tween-80
smiles,measurement,setting,value
C[N+]1(C)N=C([O-])N(CCCCCCN2C(=O)[N+](C)(C)N=C2[O-])C1=O,T/C,"dose: 100.0 mg/kg/injection, schedule: Q04DX003 (ip), vehicle: suspension in saline",94 % of control
same,T/C,"dose: 200.0 mg/kg/injection, schedule: Q04DX003 (ip), vehicle: suspension in saline",96 % of control
same,T/C,"dose: 400.0 mg/kg/injection, schedule: Q04DX003 (ip), vehicle: suspension in saline",98 % of control
CCCCCC(C)(C1=NC(C)(C)CC(C)O1)c1ccccc1 (stereo not drawn),T/C,"dose: 12.5 mg/kg/injection, schedule: Q01DX001 (ip), vehicle: saline sonified",100 % of control
same,T/C,"dose: 25.0 mg/kg/injection, schedule: Q01DX001 (ip), vehicle: saline sonified",100 % of control
same,T/C,"dose: 50.0 mg/kg/injection, schedule: Q01DX001 (ip), vehicle: saline sonified",100 % of control
CC12C(C#N)=C(c3ccccc3)C=C(c3ccccc3)C1=C(c1ccccc1)c1ccccc12 (stereo not drawn),T/C,"dose: 100.0 mg/kg/injection, schedule: Q04DX003 (ip), vehicle: Klucel (hydroxypropylcellulose) (HPC)",108 % of control
same,T/C,"dose: 200.0 mg/kg/injection, schedule: Q04DX003 (ip), vehicle: Klucel (hydroxypropylcellulose) (HPC)",95 % of control
same,T/C,"dose: 400.0 mg/kg/injection, schedule: Q04DX003 (ip), vehicle: Klucel (hydroxypropylcellulose) (HPC)",91 % of control
CC1(C)OC(C)(C)c2c1nnc(-c1ccccc1)[n+]2[O-],T/C,[1],91 % of control
same,T/C,[2],98 % of control
same,T/C,[3],88 % of control
CS(=O)(=O)CC(O)(c1ccccc1)c1ccccn1 (stereo not drawn),T/C,[4],90 % of control
same,T/C,[5],89 % of control
same,T/C,[6],89 % of control
O=C(/C=C/c1ccc2c(c1)OCO2)/C=C/c1ccc2c(c1)OCO2,T/C,"dose: 12.5 mg/kg/injection, schedule: Q01DX009 (ip), vehicle: saline",101 % of control
same,T/C,"dose: 12.5 mg/kg/injection, schedule: Q04DX003 (ip), vehicle: saline",105 % of control
same,T/C,[7],96 % of control
same,T/C,[8],112 % of control
same,T/C,[9],114 % of control
same,T/C,[10],114 % of control
same,T/C,[11],92 % of control
same,T/C,[12],114 % of control
CCN(CC)C(=S)Oc1cc(C)nc(N2CCCC2)n1,T/C,[1],95 % of control
same,T/C,[2],101 % of control
same,T/C,[3],97 % of control
C=C1C(=O)OC2/C=C(\C)C3(O)C=CC(C)(CC(OC(=O)C(C)C)C12)O3 (stereo not drawn),T/C,"dose: 10.0 mg/kg/injection, schedule: Q01DX009 (ip), vehicle: saline",103 % of control
same,T/C,"dose: 12.5 mg/kg/injection, schedule: Q01DX009 (ip), vehicle: other",161 % of control
same,T/C,"dose: 25.0 mg/kg/injection, schedule: Q01DX009 (ip), vehicle: other",155 % of control
same,T/C,"dose: 40.0 mg/kg/injection, schedule: Q01DX009 (ip), vehicle: saline",100 % of control
same,T/C,"dose: 50.0 mg/kg/injection, schedule: Q01DX009 (ip), vehicle: other",161 % of control
O=CC(=O)c1ccc(O)cc1,T/C,"dose: 50.0 mg/kg/injection, schedule: Q04DX003 (ip), vehicle: saline sonified",109 % of control
same,T/C,"dose: 300.0 mg/kg/injection, schedule: Q04DX003 (ip), vehicle: saline with Tween-80",86 % of control
O=P(N1CC1)(N1CC1)N1CC1,T/C,"dose: 3.0 mg/kg/injection, schedule: Q01DX010 (ip), vehicle: saline",204 % of control
CCC(C)(CC(=O)O)CC(=O)O,T/C,"dose: 3.12 mg/kg/injection, schedule: Q01DX009 (ip), vehicle: saline with Tween-80",95 % of control
same,T/C,[13],112 % of control
same,T/C,[14],116 % of control
same,T/C,[15],87 % of control
same,T/C,[4],87 % of control
same,T/C,[10],110 % of control
same,T/C,[12],120 % of control
same,T/C,[16],120 % of control
O=C(CO)Nc1ccc(Br)cc1,T/C,"dose: 50.0 mg/kg/injection, schedule: Q01DX009 (ip), vehicle: Klucel (hydroxypropylcellulose) (HPC)",94 % of control
same,T/C,"dose: 100.0 mg/kg/injection, schedule: Q01DX009 (ip), vehicle: Klucel (hydroxypropylcellulose) (HPC)",104 % of control
same,T/C,"dose: 200.0 mg/kg/injection, schedule: Q01DX009 (ip), vehicle: Klucel (hydroxypropylcellulose) (HPC)",86 % of control
O=C(Cl)C1CCCCC1,T/C,[4],100 % of control
same,T/C,[5],104 % of control
Cc1cccc(N2CCNCC2)c1,T/C,"dose: 6.25 mg/kg/injection, schedule: Q04DX003 (ip), vehicle: saline sonified",95 % of control
same,T/C,"dose: 12.5 mg/kg/injection, schedule: Q04DX003 (ip), vehicle: saline sonified",100 % of control
same,T/C,"dose: 25.0 mg/kg/injection, schedule: Q04DX003 (ip), vehicle: saline sonified",109 % of control
O=C1CC=C(Nc2ccc(Br)cc2)C(=O)O1,T/C,[7],99 % of control
same,T/C,"dose: 50.0 mg/kg/injection, schedule: Q01DX009 (ip), vehicle: saline",101 % of control
same,T/C,"dose: 100.0 mg/kg/injection, schedule: Q01DX009 (ip), vehicle: saline",105 % of control
same,T/C,[10],112 % of control
same,T/C,[11],92 % of control
same,T/C,[12],91 % of control
same,T/C,"dose: 400.0 mg/kg/injection, schedule: Q01DX009 (ip), vehicle: saline",99 % of control
same,T/C,[16],107 % of control
COc1ccc(C2=NC(c3ccccc3)NC(c3ccccc3)/C2=C/c2ccccc2)cc1 (stereo not drawn),T/C,[13],106 % of control
same,T/C,[14],99 % of control
same,T/C,[15],99 % of control
same,T/C,[4],91 % of control and 94 % of control
same,T/C,[5],95 % of control
O=c1[nH]c(=O)n(O)c2nc[nH]c12,T/C,[8],100 % of control
same,T/C,"dose: 37.5 mg/kg/injection, schedule: Q01DX001 (ip), vehicle: saline",100 % of control
same,T/C,[9],100 % of control
same,T/C,"dose: 75.0 mg/kg/injection, schedule: Q01DX001 (ip), vehicle: saline",109 % of control
same,T/C,"dose: 75.0 mg/kg/injection, schedule: Q01DX009 (ip), vehicle: saline",90 % of control
same,T/C,[10],118 % of control
CCOC(=O)NP(=O)(N1CC1(C)C)N1CC1(C)C (stereo not drawn),T/C,"dose: 31.3 mg/kg/injection, schedule: Q01DX010 (ip), vehicle: saline",175 % of control
same,T/C,"dose: 62.5 mg/kg/injection, schedule: Q01DX010 (ip), vehicle: saline",175 % of control
same,T/C,"dose: 125.0 mg/kg/injection, schedule: Q01DX010 (ip), vehicle: saline",200 % of control
same,T/C,"dose: 250.0 mg/kg/injection, schedule: Q01DX010 (ip), vehicle: saline",225 % of control
NC(=O)c1csc(C2OC(CO)C(O)C2O)n1 (stereo not drawn),T/C,"dose: 330.0 mg/kg/injection, schedule: Q01DX009 (ip), vehicle: water",213 % of control
same,T/C,"dose: 500.0 mg/kg/injection, schedule: Q01DX009 (ip), vehicle: water",243 % of control
same,T/C,"dose: 750.0 mg/kg/injection, schedule: Q01DX009 (ip), vehicle: water",277 % of control
Cc1cccc(C)c1NC(=O)c1ccccc1Cl,T/C,[17],113 % of control
same,T/C,[18],109 % of control
same,T/C,[19],104 % of control
CC(C#N)(C#N)N=Nc1ccc(Cl)cc1Cl,T/C,[5],116 % of control
O=C(O)c1onc2ccccc12,T/C,"dose: 100.0 mg/kg/injection, schedule: Q01DX001 (ip), vehicle: saline with Tween-80",113 % of control
same,T/C,"dose: 200.0 mg/kg/injection, schedule: Q01DX001 (ip), vehicle: saline with Tween-80",90 % of control
CCOC(=O)c1c(NC(C)=O)sc2c1CCCC2,T/C,[4],104 % of control
same,T/C,[20],90 % of control
same,T/C,[5],100 % of control
same,T/C,[17],104 % of control
same,T/C,[6],100 % of control
same,T/C,[18],100 % of control
COC(=O)C1C2C(C)CC3(CC12C)OCCO3 (stereo not drawn),T/C,[17],90 % of control
same,T/C,[18],109 % of control
same,T/C,[19],100 % of control
N/N=C1/CCN2CCCc3cccc1c32,T/C,[20],100 % of control
same,T/C,[17],110 % of control
Cc1cc(C)c(N)c(Br)c1C,T/C,[5],100 % of control
same,T/C,[6],87 % of control
CS(=O)(=O)Nc1ccc(NS(C)(=O)=O)c(SCc2ccccc2)c1,T/C,"dose: 100.0 mg/kg/injection, schedule: Q01DX001 (ip), vehicle: Klucel (hydroxypropylcellulose) (HPC)",100 % of control
same,T/C,"dose: 200.0 mg/kg/injection, schedule: Q01DX001 (ip), vehicle: Klucel (hydroxypropylcellulose) (HPC)",100 % of control
same,T/C,"dose: 400.0 mg/kg/injection, schedule: Q01DX001 (ip), vehicle: Klucel (hydroxypropylcellulose) (HPC)",100 % of control
